Source: article PMC7279038, “Antioxidant and Neuroprotective Effects Induced by Cannabidiol and Cannabigerol in Rat CTX-TNA2 Astrocytes and Isolated Cortexes” (International Journal of Molecular Sciences, 2020)

Legend:
syntaxin 1b (Stx 1b) = assay: Untargeted proteomic analysis of cortexes, Stx 1b; parameters: species or system rat; conditions: CBD 1000 nM, CBG 1 nM
Procedure: Sprague–Dawley rats (200–250 g) were sacrificed by CO2 inhalation (Italian Health Ministry authorization N. F4738.N.XTQ, delivered on 11th November 2018) and isolated prefrontal cortex specimens were immediately explanted and incubated in thermostatic shaking bath at 37 °C for 1 h (incubation period), in Krebs–Ringer buffer at the following K^+ concentrations:
Cortexes were stimulated with CBD (1000 nM) and CBD (1 nM). Afterwards, specimens were homogenized in perchloric acid solution (0.05 M) for the extraction and quantification of nitrites, via the aforementioned colorimetric Griess assay, and serotonin (5-HT), 5-hydroxyindoleacetic (5HIIA),3-hydroxykinurenine (3-HK) and kinurenic acid (KA) (ng/mg wet tissue) via high performance liquid chromatography analysis. Additionally, an untargeted proteomic analysis was carried out on the cortex homogenate. The analytical protocols for 5-HT, 5HIIA, 3-HK, KA and protein level determinations are described below. […]
After protein quantification, a volume corresponding to 50 μg of proteins was loaded onto a Nanosep 10-kDa-cutoff filter (Pall Corporation, Michigan, USA) and digested according to the protocol we routinely use in our laboratory, adapted from Distler et al. Briefly, the sample was washed twice with 200 μL urea buffer (8M urea, 100 mM Tris pH 8.5 in milliQ water) to remove the detergents present in the lysis buffer. […]

cytochrome C (Cyt C) = assay: Western blotting analysis of cytochrome C; assay type: cell-based, rat; conditions: CTX-TNA2 challenged with H2O2, 24 h; 1000 nM CBD, 1 nM CBG
Procedure: […] The stock solutions were diluted in cell medium to the point that the concentration of DMSO in the samples was less than 0.0003%. Therefore, the addition of DMSO to the control samples was not necessary.
The western blowing analysis of Bax and Cyt C was carried out as previously reported. Specifically, CTX-TNA2 lysates (20 µg) were boiled fof 5 min in sample buffer, made of tris-HCl pH 6.8, glycerol, 2-mercaptoethanol, SDS and bromophenol blue. They were then electrophoresed and transferred to nitrocellulose membranes. […] Immunoreactive bands were identified using the ECL detection system (Euroclone, Pero, Milano, Italy) and analyzed by densitometry. Densitometric values were quantified by the CHEMIDOC XRS system and expressed as Integrated Optical Intensity using the QuantiOne 1-D analysis software (Bio-rad Laboratories, Richmond, CA, USA). […] Results are expressed as the mean ± SD.

SMILES: C=C(C)[C@@H]1CCC(C)=C[C@H]1c1c(O)cc(CCCCC)cc1O [CBD, Cannabidiol]
- effect on K+ 60 mM-induced reduction in Stx 1b level (syntaxin 1b (Stx 1b)): blocking the downregulation
- Cyt C expression (cytochrome C (Cyt C)): decrease the Cyt C levels in comparison to H2O2 sample

SMILES: CCCCCc1cc(O)c(C/C=C(\C)CCC=C(C)C)c(O)c1 [CBG, cannabigerol]
- effect on K+ 60 mM-induced reduction in Stx 1b level (syntaxin 1b (Stx 1b)): completely ineffective
- Cyt C expression (cytochrome C (Cyt C)): effect on Bax only
